Among the data in the METLIN SMRT retention time set (Domingo-Almenara et al. 2019) are RP-LC retention time values, retold here.

This data set can be described thus: gradient 5% acetonitrile 3 min, to 50% in 2 min, to 85% in 15 min, held 3 min, 100 µL/min. The settings on record: column: Zorbax Extend-C18 2.1 x 50 mm; eluents: water / acetonitrile, 0.1% formic acid. The essentials:
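Retention time was recorded from adduct peaks, which were picked computationally and each inspected manually. Pure standards ran in mixtures of ~100 molecules on HPLC coupled to a quadrupole time-of-flight mass spectrometer, in positive and negative ionization mode, through a Zorbax Extend-C18 column (2.1 × 50 mm, 1.8 μm) at 100 μL/min. Eluents were water and acetonitrile, each with 0.1% formic acid.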
`COCCN1C(=O)c2ccccc2C(C(=O)Nc2cccnc2)C1c1cccs1` (stereo not given) registered an RP-LC retention time of 581 s.
As for `Cc1ccc(C(=O)N2CCCC(COc3ccc(C(=O)N4CCCC4)cc3)C2)cc1C` (stereo not given), the figure is 940 s; as for `Cc1ccc2nc(-c3ccc(NC(=O)c4cnc5sccn5c4=O)cc3)sc2c1`, 1110 s.
`O=C(c1ccc2c(c1)OCO2)N(c1ccc(Br)cc1)C1C=CS(=O)(=O)C1` (stereo not given) registered an RP-LC retention time of 779 s.
The value for `CC(=O)c1ccc(N2CCN(C(=O)c3nnn4c3COC(c3ccc(F)cc3)C4)CC2)cc1` (stereo not given) was 914 s; that for `Cn1cc(CC(=O)N2CCN(c3ncccn3)CC2)c2ccccc21` was 720 s; that for `Cc1sc(NC(=O)c2ccncc2)nc1-c1ccc2c(c1)NC(=O)C(C)O2` (stereo not given) was 714 s.
As for `O=C1CCC(c2nc(-c3ccc4c(c3)OCO4)no2)=NN1Cc1ccccc1`, the figure is 1050 s.
The value for `Cc1cc(-c2nnc(-c3ccccc3)o2)c(C)n1CC(=O)NC1CCCCC1` was 883 s; that for `CCN1CCN(CCCNC(=O)CN2C(=O)C3CCCCN3c3ccc(C(=O)N(C)C)cc32)CC1` (stereo not given) was 579 s.
Take `C[C@@H](NC(=O)c1ccc(F)c(F)c1)C(=O)NCc1cscn1`: the RP-LC retention time worked out at 648 s.
The value for `COc1ccc(-c2cc(C(=O)N3CCCC3)c(C)n2C)cc1` was 589 s.
Compound `CCNC(=O)c1cc(-c2ccc(F)cc2)n(C)c1C` came in with an RP-LC retention time of 820 s.
As for `O=c1cc(-c2cccnc2)oc2c1ccc1ccccc12`, the figure is 979 s.
The value for `Cc1ccc(CNC(=O)CN2C(=O)CSc3cccn3-c3ccccc32)cc1` was 1110 s.
As for `Cn1nnc2c(N3CCN(C(=O)Nc4ccccc4C#N)CC3)ncnc21`, the figure is 626 s; as for `CC(=O)N1CCc2cc(N3CC(C(=O)Nc4ccccc4)CC3=O)ccc21` (stereo not given), 677 s; as for `CCOc1ccccc1N1CCN(C(=O)CSc2nccnc2Oc2ccc(C)cc2)CC1`, 1020 s.
In turn, `CCc1nccn1Cc1noc(-c2cccs2)n1` showed an RP-LC retention time of 593 s.
As for `Cc1nn(CC(=O)NC(C)(C)C)c(C)c1S(=O)(=O)N1CCC(C(=O)N2CCC(C)CC2)CC1`, the figure is 794 s; as for `COc1ccc(CNC(=O)C2CCCN(c3ncnc4c3nc3n4CCCCC3)C2)cc1` (stereo not given), 732 s.
The value for `CCOc1ccc(NC(=O)N2CCN(c3nc4ccccc4n3C)CC2)cc1` was 649 s.
The compound `Cc1ccc(-c2noc(-c3ccc(N4CCN(c5ccccn5)CC4)nc3)n2)cc1` had an RP-LC retention time of 805 s.
The value for `CC(C)n1c(=O)sc2cc(S(=O)(=O)N3CCC(C(=O)N(C)C4CCCCC4)CC3)ccc21` was 716 s.
The value for `C=Cc1ccc(Cn2cc(S(=O)(=O)N3CCCCC3)ccc2=O)cc1` was 968 s; that for `O=C(Cc1cccc(F)c1)Nc1cc(-c2ccccn2)no1` was 800 s.
As for `O=C(c1ccc(C(F)(F)F)cc1)N1CCN(c2nc(CN3CCOCC3)cs2)CC1`, the figure is 655 s; as for `O=C(N[C@H]1C[C@@H]2C[C@H]1CN2C(=O)Nc1ccc2c(c1)OCCO2)c1ccccc1`, 937 s; as for `CCCS(=O)(=O)N1CC(c2nnc(-c3ccncc3)o2)C2(CCOCC2)C1` (stereo not given), 625 s.
On to `O=C(NC1CCCCC1)c1ccc(CN2C(=O)C3CCCN3C(=O)c3ccccc32)cc1` (stereo not given), for which the RP-LC retention time was 770 s.
The value for `CCCC(=O)n1nc(C)c(S(=O)(=O)N2CCOCC2)c1C` was 954 s.
As for `CCc1cccc(C)c1NC(=O)Cn1nc2n(c1=O)CCCCC2`, the figure is 700 s.
As for `COc1cccc2c(Nc3ccccc3)cc(C(=O)N3CCSCC3)nc12`, the figure is 656 s; as for `CCNc1cc(N2CCC(CCC(=O)NCc3ccc(Cl)cc3)CC2)ncn1`, 585 s; as for `NC1CCN(O)C1=O` (stereo not given), 621 s.
`CCCCN1C(=O)C(CC(=O)NCCC)Sc2ncccc21` (stereo not given) yielded an RP-LC retention time of 750 s.
As for `O=C(NC1CCCCC1)c1ccc2ccnc(N3CCN(c4ccccc4F)CC3)c2c1`, the figure is 908 s; as for `Cc1ccc(CN2CCC(CNS(=O)(=O)c3ccc4c(c3)CCCC(=O)N4)CC2)cc1`, 762 s.
Consider `Cc1ccc(CNS(=O)(=O)c2cc(-c3nc(C(C)(C)C)cs3)cs2)cc1C`, for which the RP-LC retention time was 1350 s.
`CCc1ccccc1NS(=O)(=O)c1cn(CC(C)C)c2ncccc12`: the RP-LC retention time turned out to be 1050 s.
As for `Cc1nn(-c2nc(-c3ccc(Cl)cc3)cs2)c(C)c1CC(=O)NC(C)C`, the figure is 1080 s.
Turning to `CC(=O)c1ccc2c(c1)N(CCCN(C)C)c1ccccc1S2`, the RP-LC retention time was 741 s.
The value for `Cc1ccc(NC(=O)c2cn(-c3cc(N4CCCC4)ncn3)cn2)c(C)c1` was 961 s.
The value for `COc1ccc(S(=O)(=O)NC2CCN(C(=O)C3CCN(C(C)=O)CC3)CC2)cc1` was 634 s; that for `CCN1C(=O)c2cccnc2Sc2cc(NC(=O)Cc3ccccc3F)ccc21` was 826 s; that for `CCC(CO)NCc1ccc(-c2cccc(Cl)c2C)o1` (stereo not given) was 683 s.
As for `COC(=O)c1c(C)[nH]c(C(=O)N2CCCC(C(=O)NCCN3CCCCCC3)C2)c1C` (stereo not given), the figure is 610 s; as for `CC1=NS(=O)(=O)N(Cc2ccccc2)C=C1C(=O)OCc1ccc(F)cc1`, 1080 s; as for `CCc1nnc(NC(=O)C2CC(=O)N(CCc3c[nH]c4ccc(Cl)cc34)C2)s1` (stereo not given), 715 s.
Turning to `CC(=O)Nc1ccc(-c2nc(-c3ccc4c(c3)oc(=O)n4C)no2)cc1`, the RP-LC retention time is 819 s.
As for `O=C(Nc1nnc(SCc2nnc(-c3ccccc3)o2)s1)c1ccccc1`, the figure is 866 s; as for `CCc1noc(C2(NC(=O)c3ccc(C#N)cc3)CCCCC2)n1`, 896 s.
As for `Cc1ccc(NC(=O)N2CCC(c3cc(N)on3)CC2)cc1`, the figure is 686 s.
As for `Cc1ccc(N2C=C(C(=O)N3CCCCC3)S(=O)(=O)c3ccccc32)cc1C`, the RP-LC retention time turned out to be 953 s.
The value for `O=C(NCCc1ccccc1)c1ccc2c(cnn2CC(=O)N2CCCCCC2)c1` was 791 s.
The value for `CCN(CC)CCCNC(=O)c1noc2c1CCCC2` was 607 s.
As for `O=C(NCc1ccc(F)c(Cl)c1)C1CCCN(c2ncnc3c2oc2ccccc23)C1` (stereo not given), the figure is 818 s.
In the case of `CCc1nc2cc(N3CCC(C(=O)Nc4ccc(OC)cc4OC)CC3)cnc2nc1CC`, the RP-LC retention time turned out to be 877 s.
`Cc1ccc(-c2nnc(-c3ccccc3Cl)o2)cc1S(=O)(=O)N1CCCC1`: the RP-LC retention time was determined as 1090 s.
For `CCOc1ccccc1-c1csc(NC(=O)Cc2csc(C)n2)n1`, the RP-LC retention time was 943 s.
Compound `CCC(c1cccs1)N1C(=O)[C@H]2CN(S(=O)(=O)c3cc(F)ccc3F)C[C@H]2C1=O` (stereo not given in full) registered an RP-LC retention time of 936 s.
The compound `COc1ccc(C2(C(=O)N3CC(c4noc(COc5ccc(F)cc5)n4)C3)CC2)cc1` came in with an RP-LC retention time of 974 s.
With `Cc1cccc(NC(=O)C2CCCN(c3nnc(C)c4c(C)n(-c5ccccc5)nc34)C2)c1C` (stereo not given), the RP-LC retention time turned out to be 754 s.
The value for `COc1ccccc1-n1cc(-c2ccccc2)c2c(NCCN(C)C)ncnc21` was 695 s; that for `c1ccc2c(-c3nc(C4CC4)no3)nnc(NC3CCCC3)c2c1` was 725 s.
As for `Cc1ccccc1CN1CCN(CC(=O)NC2CCN(Cc3ccccc3)CC2)C(=O)C1=O`, the figure is 633 s; as for `CC(=O)NCc1ccc(-c2noc(Cc3c(F)cccc3Cl)n2)s1`, 834 s; as for `CC(C)Cc1noc(C2(F)CCN(S(=O)(=O)c3cccc(Cl)c3)CC2)n1`, 1190 s.
For `Cc1ccc(-n2nc(N3CCN(C(=O)Nc4cccc(C)c4)CC3)ccc2=O)cc1`, the RP-LC retention time came to 820 s.
`COc1cc([C@@H]2c3cc4c(cc3[C@H](O)[C@@H](CO)[C@@H]2C(=O)NC2CCCCC2)OCO4)cc(OC)c1OC` showed an RP-LC retention time of 736 s.
As for `Cn1cc(C(=O)N2CC(n3cc(COc4ccc(F)cc4)nn3)C2)cn1`, the figure is 641 s; as for `COc1ccc(-c2nnc(Cc3nc(-c4cccnc4)no3)o2)cc1`, 755 s.
As for `CCC1CN(C(=O)Nc2ccc3c(c2)OCCO3)c2ccccc2O1` (stereo not given), the figure is 966 s; as for `Cc1ccc(/C=C/c2nc(-c3ccc4c(c3)oc(=O)n4C)no2)cc1`, 1110 s.
For the compound `Cc1sc(NC(=O)COc2ccc(Cl)cc2)nc1-c1ccc2c(c1)NC(=O)CO2`, the RP-LC retention time was 873 s.
The value for `COc1ccccc1N1CCN(C(=O)C2CCCN(c3ncnc4c3nc3n4CCCCC3)C2)CC1` (stereo not given) was 766 s; that for `COC(=O)c1ccsc1NC(=O)c1c[nH]c2ccccc12` was 882 s.
The value for `COc1ccc(-n2cc(C(=O)NCCc3c[nH]c4ccc(F)cc34)nn2)cc1` was 871 s; that for `Clc1ccc(CCCOCCCN2CCCCC2)cc1` was 744 s; that for `OCCNCc1ccc(-c2ccc(Cl)cc2Cl)o1` was 642 s.
